Values quoted from earlier work as cited in US20160256406A1, “OLIGOMERIC/POLYMERIC SILICONE FLUIDS FOR USE IN TRANSDERMAL DRUG DELIVERY SYSTEMS” (priority 2015, published 2016).

Assays:
[1] = at RT
[2] = at RT; remark: listed apart in the source

Row | Compound | Octanol/Water Partition Coefficient (Log Kow) [1] | Water Solubility [2] [µg/mL]
1 | C[Si](C)(C)O[Si](C)(C)C [L2, Hexamethyldisiloxane] | 4.2 | –
2 | C[Si]1(C)O[Si](C)(C)O[Si](C)(C)O[Si](C)(C)O1 [D4, Octamethylcyclotetrasiloxane] | 5.1 | –
3 | C[Si](C)(C)O[Si](C)(C)O[Si](C)(C)O[Si](C)(C)O[Si](C)(C)C [L5, Dodecamethylpentasiloxane] | 6.0 | –
4 | C[Si](C)(C)O[Si](C)(C)O[Si](C)(C)O[Si](C)(C)C [L4, Decamethyltetrasiloxane] | 5.4 | –
5 | C[Si]1(C)O[Si](C)(C)O[Si](C)(C)O1 [D3, Hexamethylcyclotrisiloxane] | 4.5 | –
6 | C[Si]1(C)O[Si](C)(C)O[Si](C)(C)O[Si](C)(C)O[Si](C)(C)O[Si](C)(C)O1 [D6, Dodecamethylcyclohexasiloxane] | 6.3 | 0.005
7 | C[Si](C)(C)O[Si](C)(C)O[Si](C)(C)C [L3, Octamethyltrisiloxane] | 4.8 | –
8 | C[Si]1(C)O[Si](C)(C)O[Si](C)(C)O[Si](C)(C)O[Si](C)(C)O1 [D5, Decamethylcyclopentasiloxane] | 5.2-5.7 | 0.017 to 0.050
